Where a SMILES comes first, the peptide text is derived from it. [ ]: non-standard residue; d: D form. ξ: configuration not given here. αMePhe(2,6-F2) = C[C@](N)(Cc1c(F)cccc1F)C(=O)O; ξαMePhe(2,6-F2) = CC(N)(Cc1c(F)cccc1F)C(=O)O; αMePhe(2-F) = C[C@](N)(Cc1ccccc1F)C(=O)O; ξαMePhe(2-F) = CC(N)(Cc1ccccc1F)C(=O)O; hArg = N=C(N)NCCCC[C@H](N)C(=O)O; ξαMeF = CC(N)(Cc1ccccc1)C(=O)O; Nle = CCCC[C@H](N)C(=O)O; ξαMeP = CC1(C(=O)O)CCCN1; Ac5c = NC1(C(=O)O)CCCC1; Ac3c = NC1(C(=O)O)CC1; Aib = CC(C)(N)C(=O)O
Key:
Type in all cases: in vitro ADME
[1] = Stability of peptides in human plasma; conditions: human, plasma; for metabolised at 24 h, 2 μM: pH 7.8
Method: (§1) b) Stability of Peptides in Human Plasma, Simulated Gastric Fluid, Intestinal Fluid and Liver Microsomes (Ex-Vivo): Different short-chain peptides (final concentration 2 μM) were incubated with either pooled human plasma (7.5 μL) or simulated gastric fluid (pH 1.5; composition HCl, NaCl and Pepsin) or simulated intestinal fluid (pH 7.5) or human liver microsomes, for 0, 2, 4, 6, 12 and 24 h (37° C.; 50 mM triethanolamine-HCl buffer; pH 7.8). Concentrations of human plasma/simulated gastric fluid/simulated intestinal fluid/human liver microsomes were selected in preliminary experiments to provide degradation of approximately 50% of PTH(1-34) within 1 h, therefore allowing time-dependent degradation to be viewed over 24 h. Reactions were terminated by the addition of TFA/H2O ([…], 10% (v/v)). The reaction products were then applied to a Vydac C18 analytical column (4.6×250-mm) and the major degradation fragment separated from intact short-chain peptides. The column was equilibrated with TFA/H20, at a flow rate of 1 mL/min. Using 0.1% (v/v) TFA in 70% acetonitrile/H2O, the concentration of acetonitrile in the eluting solvent was raised from 0% to 28% over 10 min and from 28% to 42% over 30 min. The absorbance was monitored at 206 nm using UV detector and peaks were collected manually prior to ESI-MS analysis. Area under the curve was measured for test peptides and their metabolites and percentage degradation were calculated at each time point over a period of 24 h. Stability study results of selected peptides, in human plasma, simulated gastric fluid, intestinal fluid and liver microsomes (in vitro) are listed in Table 4.

[2] = Stability of peptides in human liver microsomes; conditions: human, microsomes; for % degradation of peptides in 24 h when incubated with liver microsomes: 2 μM, pH 7.8
Method: as §1

[3] = Stability of peptides in simulated intestinal fluid (pH 7.5); conditions: pH 7.5; for half-life (t1/2) in simulated intestinal fluid / half-life: simulated gi fluid; for % degradation of peptides in 24 h when incubated with simulated intestinal fluid: 2 μM
Method: as §1

[4] = Stability of peptides in simulated gastric fluid (pH 1.5; HCl, NaCl and Pepsin); conditions: pH 1.5; for % degradation of peptides in 24 h when incubated with simulated gastric fluid: 2 μM; for half-life (t1/2) in simulated gastric fluid / half-life: simulated gi fluid
Method: as §1

SMILES | half-life [1] | metabolised at 24 h, 2 μM [1] | half-life [2] | % degradation of peptides in 24 h when incubated with liver microsomes [2] | half-life (t1/2) in simulated intestinal fluid [3] | % degradation of peptides in 24 h when incubated with simulated intestinal fluid [3] | % degradation of peptides in 24 h when incubated with simulated gastric fluid [4] | half-life (t1/2) in simulated gastric fluid [4] | half-life (t1/2) in liver microsomes [2] | half-life [3] | half-life [4] | half-life (t1/2) in human plasma [1]
CCCC[C@H](NC(=O)C(C)(Cc1ccccc1F)NC(=O)[C@H](CCC(N)=O)NC(=O)[C@@H](NC(=O)[C@H](CCC(=O)O)NC(=O)C(C)(C)NC(=O)[C@@H](NC(=O)C(C)(C)N)C(C)C)[C@@H](C)CC)C(=O)N[C@@H](Cc1c[nH]cn1)C(=O)N[C@@H](CCC(N)=O)C(=O)N[C@@H](CCCCNC(=N)N)C(=O)N1CCCC1(C)C(=O)N[C@@H](CCCCN)C(=O)NC(C)(Cc1ccccc1)C(N)=O (some centres unmarked) [Seq. ID. 25] (H-[Aib]V[Aib]EIQ[ξαMePhe(2-F)][Nle]HQ[hArg][ξαMeP]K[ξαMeF]-NH2) | 8 h | 75% | 1 h | 83% | (6) h | 46% | 12% | (8) h |  |  |  | 
CCCC[C@H](NC(=O)C(C)(Cc1ccccc1F)NC(=O)[C@H](CCC(N)=O)NC(=O)[C@@H](NC(=O)[C@H](CCC(=O)O)NC(=O)C(C)(C)NC(=O)[C@@H](NC(=O)C(C)(C)N)C(C)C)[C@@H](C)CC)C(=O)N[C@@H](Cc1c[nH]cn1)C(=O)N[C@@H](CCC(N)=O)C(=O)N[C@@H](CCCCNC(=N)N)C(=O)N1CCCC1(C)C(=O)N[C@@H](CCCCN)C(=O)NC(C)(Cc1ccccc1F)C(N)=O (some centres unmarked) [Seq. ID. 56] (H-[Aib]V[Aib]EIQ[ξαMePhe(2-F)][Nle]HQ[hArg][ξαMeP]K[ξαMePhe(2-F)]-NH2) | > 24 h | 0% |  | 32% |  | 00% | 00% |  | (5) h | > 24 h | > 24 h | 
CCCC[C@H](NC(=O)C(C)(Cc1ccccc1F)NC(=O)[C@H](CCC(N)=O)NC(=O)[C@@H](NC(=O)[C@H](CCC(=O)O)NC(=O)C1(NC(=O)[C@@H](NC(=O)C(C)(C)N)C(C)C)CCCC1)[C@@H](C)CC)C(=O)N[C@@H](Cc1c[nH]cn1)C(=O)N[C@@H](CCC(N)=O)C(=O)N[C@@H](CCCCNC(=N)N)C(=O)N1CCCC1(C)C(=O)N[C@@H](CCCCN)C(=O)NC(C)(Cc1ccccc1F)C(N)=O (some centres unmarked) [Seq. ID. 62] (H-[Aib]V[Ac5c]EIQ[ξαMePhe(2-F)][Nle]HQ[hArg][ξαMeP]K[ξαMePhe(2-F)]-NH2) | > 24 h | 0% |  | 33% |  | 00% | 00% |  | (5) h | > 24 h | > 24 h | 
CCCC[C@H](NC(=O)C(C)(Cc1ccccc1F)NC(=O)[C@H](CCC(N)=O)NC(=O)[C@@H](NC(=O)[C@H](CCC(=O)O)NC(=O)C(C)(C)NC(=O)[C@@H](NC(=O)C1(N)CC1)C(C)C)[C@@H](C)CC)C(=O)N[C@@H](Cc1c[nH]cn1)C(=O)N[C@@H](CCC(N)=O)C(=O)N[C@@H](CCCCNC(=N)N)C(=O)NC(C)(C)C(=O)N[C@@H](CCCCN)C(=O)NC(C)(Cc1c(F)cccc1F)C(N)=O (some centres unmarked) [Seq. ID. 95] (H-[Ac3c]V[Aib]EIQ[ξαMePhe(2-F)][Nle]HQ[hArg][Aib]K[ξαMePhe(2,6-F2)]-NH2) |  | 80% | 0.5 h | 100% |  | 100% | 100% |  |  | 0.5 h | 0.5 h | (9) h

Second part, the compound after the results:

half-life [1] | metabolised at 24 h, 2 μM [1] | half-life [2] | % degradation of peptides in 24 h when incubated with liver microsomes [2] | half-life (t1/2) in simulated intestinal fluid [3] | % degradation of peptides in 24 h when incubated with simulated intestinal fluid [3] | % degradation of peptides in 24 h when incubated with simulated gastric fluid [4] | half-life (t1/2) in simulated gastric fluid [4] | half-life (t1/2) in liver microsomes [2] | half-life [3] | half-life [4] | half-life (t1/2) in human plasma [1] | SMILES
8 h | 70% | 1 h | 77% | (6) h | 41% | 15% | (8) h |  |  |  |  | CCCC[C@H](NC(=O)C(C)(Cc1ccccc1F)NC(=O)[C@H](CCC(N)=O)NC(=O)[C@@H](NC(=O)[C@H](CCC(=O)O)NC(=O)C1(NC(=O)[C@@H](NC(=O)C2(N)CCCC2)C(C)C)CCCC1)[C@@H](C)CC)C(=O)N[C@@H](Cc1c[nH]cn1)C(=O)N[C@@H](CCC(N)=O)C(=O)N[C@@H](CCCCNC(=N)N)C(=O)N1CCCC1(C)C(=O)N[C@@H](CCCCN)C(=O)NC(C)(Cc1ccccc1)C(N)=O (some centres unmarked) [Seq. ID. 34] (H-[Ac5c]V[Ac5c]EIQ[ξαMePhe(2-F)][Nle]HQ[hArg][ξαMeP]K[ξαMeF]-NH2)
> 24 h | 0% |  | 31% |  | 00% | 00% |  | (5) h | > 24 h | > 24 h |  | CCCC[C@H](NC(=O)C(C)(Cc1c(F)cccc1F)NC(=O)[C@H](CCC(N)=O)NC(=O)[C@@H](NC(=O)[C@H](CCC(=O)O)NC(=O)C1(NC(=O)[C@@H](NC(=O)C2(N)CCCC2)C(C)C)CCCC1)[C@@H](C)CC)C(=O)N[C@@H](Cc1c[nH]cn1)C(=O)N[C@@H](CCC(N)=O)C(=O)N[C@@H](CCCCNC(=N)N)C(=O)N1CCCC1(C)C(=O)N[C@@H](CCCCN)C(=O)NC(C)(Cc1ccccc1)C(N)=O (some centres unmarked) [Seq. ID. 46] (H-[Ac5c]V[Ac5c]EIQ[ξαMePhe(2,6-F2)][Nle]HQ[hArg][ξαMeP]K[ξαMeF]-NH2)
 | 78% | 0.5 h | 100% |  | 100% | 100% |  |  | 0.5 h | 0.5 h | (9) h | CCCC[C@H](NC(=O)C(C)(Cc1c(F)cccc1F)NC(=O)[C@H](CCC(N)=O)NC(=O)[C@@H](NC(=O)[C@H](CCC(=O)O)NC(=O)C(C)(C)NC(=O)[C@@H](NC(=O)C1(N)CC1)C(C)C)[C@@H](C)CC)C(=O)N[C@@H](Cc1c[nH]cn1)C(=O)N[C@@H](CCC(N)=O)C(=O)N[C@@H](CCCCNC(=N)N)C(=O)N1CCCC1(C)C(=O)N[C@@H](CCCCN)C(=O)NC(C)(Cc1ccccc1F)C(N)=O (some centres unmarked) [Seq. ID. 75] (H-[Ac3c]V[Aib]EIQ[ξαMePhe(2,6-F2)][Nle]HQ[hArg][ξαMeP]K[ξαMePhe(2-F)]-NH2)
 | 77% | 0.5 h | 100% |  | 100% | 100% |  |  | 0.5 h | 0.5 h | (9) h | CCCC[C@H](NC(=O)[C@](C)(Cc1c(F)cccc1F)NC(=O)[C@H](CCC(N)=O)NC(=O)[C@@H](NC(=O)[C@H](CCC(=O)O)NC(=O)C(C)(C)NC(=O)[C@@H](NC(=O)C1(N)CCCC1)C(C)C)[C@@H](C)CC)C(=O)N[C@@H](Cc1c[nH]cn1)C(=O)N[C@@H](CCC(N)=O)C(=O)N[C@@H](CCCCNC(=N)N)C(=O)NC(C)(C)C(=O)N[C@@H](CCCCN)C(=O)N[C@@](C)(Cc1ccccc1F)C(N)=O [Seq. ID. 85] (H-[Ac5c]V[Aib]EIQ[αMePhe(2,6-F2)][Nle]HQ[hArg][Aib]K[αMePhe(2-F)]-NH2)
> 24 h | 0% | 2 h | 82% |  | 00% | 49% |  |  | > 24 h | 4 h |  | CCCC[C@H](NC(=O)C(C)(Cc1ccccc1F)NC(=O)[C@H](CCC(N)=O)NC(=O)[C@@H](NC(=O)[C@H](CCC(=O)O)NC(=O)C1(NC(=O)[C@@H](NC(=O)C2(N)CCCC2)C(C)C)CCCC1)[C@@H](C)CC)C(=O)N[C@@H](Cc1c[nH]cn1)C(=O)N[C@@H](CCC(N)=O)C(=O)N[C@@H](CCCCNC(=N)N)C(=O)N1CCCC1(C)C(=O)N[C@@H](CCCCN)C(=O)NC(C)(Cc1c(F)cccc1F)C(N)=O (some centres unmarked) [Seq. ID. 100] (H-[Ac5c]V[Ac5c]EIQ[ξαMePhe(2-F)][Nle]HQ[hArg][ξαMeP]K[ξαMePhe(2,6-F2)]-NH2)
8 h | 78% | 1 h | 79% | (6) h | 55% | 12% | (8) h |  |  |  |  | CCCC[C@H](NC(=O)C(C)(Cc1c(F)cccc1F)NC(=O)[C@H](CCC(N)=O)NC(=O)[C@@H](NC(=O)[C@H](CCC(=O)O)NC(=O)C1(NC(=O)[C@@H](NC(=O)C2(N)CCCC2)C(C)C)CCCC1)[C@@H](C)CC)C(=O)N[C@@H](Cc1c[nH]cn1)C(=O)N[C@@H](CCC(N)=O)C(=O)N[C@@H](CCCCNC(=N)N)C(=O)N[C@@H](C)C(=O)N[C@@H](CCCCN)C(=O)NC(C)(Cc1c(F)cccc1F)C(N)=O (some centres unmarked) [Seq. ID. 115] (H-[Ac5c]V[Ac5c]EIQ[ξαMePhe(2,6-F2)][Nle]HQ[hArg]AK[ξαMePhe(2,6-F2)]-NH2)

Reference: patent US8383581B2, “Short-chain peptides as parathyroid hormone (PTH) receptor agonist” (Cadila Healthcare Limited, priority 2009, dated 2013)
